Measurements from the supplement of paper PMC13380429.

Assays:
Conditions in all cases: 72 h
Calu-3 [1] = experiment: cell viability relative to DMSO; higher = less toxic
U2OS [2] = experiment: as above
HepG2 [3] = experiment: as above
Caco-2 [4] = experiment: as above
Calu-3 [5] = experiment: drug sensitivity score (DSS) for viability; higher = more toxic; extreme values may be limits of the assay
U2OS [6] = experiment: as above
HepG2 [7] = experiment: as above
Caco-2 [8] = experiment: as above
Calu-3 [9] = experiment: relative viability EC50 (midpoint between 100% and the lowest measured viability); higher = less toxic
U2OS [10] = experiment: as above
HepG2 [11] = experiment: as above
Caco-2 [12] = experiment: as above
Vero E6 [13] = experiment: drug sensitivity score (DSS) for viability; higher = more toxic; extreme values may be limits of the assay
Vero E6 [14] = experiment: cell viability relative to DMSO; higher = less toxic

Compound	cell viability (Calu-3 [1]; 1 nM)	cell viability (Calu-3 [1]; 10 nM)	cell viability (Calu-3 [1]; 100 nM)	cell viability (Calu-3 [1]; 1000 nM)	cell viability (Calu-3 [1]; 10000 nM)	cell viability (U2OS [2]; 1 nM)	cell viability (U2OS [2]; 10 nM)	cell viability (U2OS [2]; 100 nM)	cell viability (U2OS [2]; 1000 nM)	cell viability (U2OS [2]; 10000 nM)	cell viability (HepG2 [3]; 1 nM)	cell viability (HepG2 [3]; 10 nM)	cell viability (HepG2 [3]; 100 nM)	cell viability (HepG2 [3]; 1000 nM)	cell viability (HepG2 [3]; 10000 nM)	cell viability (Caco-2 [4]; 1 nM)	cell viability (Caco-2 [4]; 10 nM)	cell viability (Caco-2 [4]; 100 nM)	cell viability (Caco-2 [4]; 1000 nM)	cell viability (Caco-2 [4]; 10000 nM)	drug sensitivity score (Calu-3 [5])	drug sensitivity score (U2OS [6])	drug sensitivity score (HepG2 [7])	drug sensitivity score (Caco-2 [8])	relative viability EC50 (Calu-3 [9])	relative viability EC50 (U2OS [10])	relative viability EC50 (HepG2 [11])	relative viability EC50 (Caco-2 [12])	drug sensitivity score (Vero E6 [13])	cell viability (Vero E6 [14]; 1 nM)	cell viability (Vero E6 [14]; 10 nM)	cell viability (Vero E6 [14]; 100 nM)	cell viability (Vero E6 [14]; 1000 nM)	cell viability (Vero E6 [14]; 10000 nM)
CC(=O)N(CC(O)CN(C(C)=O)c1c(I)c(C(=O)NCC(O)CO)c(I)c(C(=O)NCC(O)CO)c1I)c1c(I)c(C(=O)NCC(O)CO)c(I)c(C(=O)NCC(O)CO)c1I (stereo not drawn) [iodixanol]	88.1%	107%	95.9%	97.2%	96.3%	95.4%	101%	95.6%	108%	97.5%	107%	99.2%	108%	102%	105%	96.9%	102%	87%	102%	102%	0	0	0	0	> 10 µM	> 10 µM	> 10 µM	> 10 µM						
Cc1cccc(C)c1NC(=O)c1ccc(N)cc1 [ameltolide]	95.7%	92.7%	83%	92.5%	97.1%	97%	103%	94.6%	99.2%	94.2%	99.6%	89.3%	86.2%	76%	98.7%	89.3%	94.4%	102%	110%	85.4%	0	0	0	0.1	> 10 µM	> 10 µM	> 10 µM	> 10 µM						
Nc1nc(N)nc(-c2cc(Cl)ccc2Cl)n1 [irsogladine]	112%	93.7%	91.5%	110%	99.1%	105%	97.3%	101%	100%	99.2%	89.4%	93.9%	94.6%	93.5%	105%	101%	99%	101%	102%	108%	0	0	0	0	> 10 µM	> 10 µM	> 10 µM	> 10 µM						
C[C@@H](O)[C@H]1C(=O)N2C(C(=O)O)=C(S[C@@H]3CN[C@H](C(=O)N(C)C)C3)[C@H](C)[C@H]12 [meropenem]	96.1%	109%	88.9%	104%	98.5%	101%	102%	99.9%	104%	102%						83.8%	99.6%	91.3%	111%	84.3%	0	0		0.1	> 10 µM	> 10 µM		> 10 µM						
CC(C)(C)NCC(O)COc1ccc(NC(=O)NC2CCCCC2)cc1 (stereo not drawn) [talinolol]																					0	0	0						0					
CCCCCCCCCC(=O)OC1(c2ccc(Cl)cc2)CCN(CCCC(=O)c2ccc(F)cc2)CC1 [haloperidol-decanoate]	103%	105%	112%	99.8%	114%	107%	101%	104%	101%	99.2%	112%	108%	106%	112%	97.1%	104%	104%	104%	93.5%	105%	0	0	0	0	> 10 µM	> 10 µM	> 10 µM	> 10 µM						
COC(=O)N[C@H](C(=O)N1CCC[C@H]1c1ncc(-c2ccc(-c3ccc(-c4cnc([C@@H]5CCCN5C(=O)[C@@H](NC(=O)OC)C(C)C)[nH]4)cc3)cc2)[nH]1)C(C)C [daclatasvir]	107%	90.6%	93.1%	96.1%	99.7%	104%	101%	101%	102%	90.3%	120%	116%	112%	106%	92%	104%	96.1%	107%	98.7%	83.1%	0	0	0	0.5	> 10 µM	> 10 µM	> 10 µM	> 10 µM						
c1ccc(N2CCN(Cc3nc4ccccc4[nH]3)CC2)nc1 [ABT-724]	93.5%	105%	101%	104%	114%	98.8%	103%	98.7%	104%	98.6%	92.4%	100%	99.2%	95.7%	106%	91.7%	99.8%	97.8%	100%	94%	0	0	0	0	> 10 µM	> 10 µM	> 10 µM	> 10 µM						
CN[C@@H](C)C(=O)N[C@H]1CCCC[C@H]2CC[C@@H](C(=O)N[C@@H](c3ccccc3)c3cn(CCCCc4ccc(CCCCn5cc([C@@H](NC(=O)[C@@H]6CC[C@@H]7CCCC[C@H](NC(=O)[C@H](C)NC)C(=O)N76)c6ccccc6)nn5)cc4)nn3)N2C1=O [SM-164]	103%	90%	99%	89.2%	81.3%	99.5%	108%	102%	98.8%	99.7%	106%	104%	98.6%	96.9%	90.1%	105%	109%	85.5%	84%	98.4%	0.9	0	0	2.7	> 10 µM	> 10 µM	> 10 µM	> 10 µM						
COc1ccc(-c2ccc3c(N4CCOCC4)nc(N4C[C@@H](C)O[C@@H](C)C4)nc3n2)cc1CO																					10.1	5.1	7.2						4.6					
CNc1cc2c(Nc3cccc(Br)c3)ncnc2cn1	101%	98.4%	93.9%	53.5%	37.7%	99.4%	97.6%	98.3%	92.2%	89.6%	93.8%	105%	95.9%	100%	64.9%	102%	92.5%	91.2%	84.5%	49.7%	9.5	0	1.6	4.4	0.47 µM	> 10 µM		1.55 µM	6.2	92.4%	97.3%	88.4%	72.4%	53.1%
Cc1ccc(-c2nc3ccc(C)cn3c2CC(=O)N(C)C)cc1 [ZOLPIDEM]	102%	109%	97%	95.9%	105%	101%	104%	101%	100%	96.2%	110%	97.7%	101%	97.1%	99.6%	95.5%	97%	117%	95.1%	98.1%	0	0	0	0	> 10 µM	> 10 µM	> 10 µM	> 10 µM						
CNC(=O)c1cc(Oc2ccc(NC(=O)Nc3ccc(Cl)c(C(F)(F)F)c3)c(F)c2)ccn1 [regorafenib]	102%	98.8%	105%	104%	74.2%	96.9%	103%	100%	99.8%	54.5%	102%	106%	94.4%	59.8%	16.5%	100%	105%	97%	108%	66.3%	0.8	2.4	9.3	1.2			1.03 µM		1.8	94.7%	98.9%	104%	102%	60.6%
O=C(O)c1cc(=O)c2ccccc2o1 [chromocarb]	81.8%	93.2%	86.8%	103%	93.7%						114%	106%	114%	98.5%	110%	99.8%	109%	104%	110%	108%	0		0	0	> 10 µM		> 10 µM	> 10 µM						
